Source: publication PMC4844176 (Xenobiotica; the fate of foreign compounds in biological …, 2015)

What was measured:
[1] = system: human liver microsomes (HLM); format: in vitro ADME; details: pooled HLM; Km not shown
UGT1A1 = target: T1, UGT1A1 (Homo sapiens, UniProt P22309); experiment: Screening for aprepitant glucuronidation, UGT1A1 Supersomes; format: in vitro ADME; details: UGT1A1, 5 and 250 µM aprepitant
T1 sequence (P22309 26-533): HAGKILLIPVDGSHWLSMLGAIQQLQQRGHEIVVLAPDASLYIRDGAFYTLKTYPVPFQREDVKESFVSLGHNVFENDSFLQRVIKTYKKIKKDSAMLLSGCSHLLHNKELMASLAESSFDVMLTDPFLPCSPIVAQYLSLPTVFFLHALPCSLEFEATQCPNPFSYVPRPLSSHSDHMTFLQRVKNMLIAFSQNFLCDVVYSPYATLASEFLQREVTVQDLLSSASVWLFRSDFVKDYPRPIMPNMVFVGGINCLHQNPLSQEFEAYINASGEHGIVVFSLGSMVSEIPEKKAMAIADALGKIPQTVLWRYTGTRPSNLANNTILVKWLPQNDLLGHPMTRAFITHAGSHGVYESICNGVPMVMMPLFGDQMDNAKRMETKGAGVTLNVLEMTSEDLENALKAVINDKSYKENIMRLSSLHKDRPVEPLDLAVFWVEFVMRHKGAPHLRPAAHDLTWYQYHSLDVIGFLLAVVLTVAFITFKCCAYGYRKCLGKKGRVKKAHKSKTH

UGT1A7 [2] = target: T2, UGT1A7 (Homo sapiens, UniProt Q9HAW7); experiment: Screening for aprepitant glucuronidation, UGT1A7 Supersomes; format: in vitro ADME; details: UGT1A7, 5 and 250 µM aprepitant
T2 sequence (Q9HAW7 26-530): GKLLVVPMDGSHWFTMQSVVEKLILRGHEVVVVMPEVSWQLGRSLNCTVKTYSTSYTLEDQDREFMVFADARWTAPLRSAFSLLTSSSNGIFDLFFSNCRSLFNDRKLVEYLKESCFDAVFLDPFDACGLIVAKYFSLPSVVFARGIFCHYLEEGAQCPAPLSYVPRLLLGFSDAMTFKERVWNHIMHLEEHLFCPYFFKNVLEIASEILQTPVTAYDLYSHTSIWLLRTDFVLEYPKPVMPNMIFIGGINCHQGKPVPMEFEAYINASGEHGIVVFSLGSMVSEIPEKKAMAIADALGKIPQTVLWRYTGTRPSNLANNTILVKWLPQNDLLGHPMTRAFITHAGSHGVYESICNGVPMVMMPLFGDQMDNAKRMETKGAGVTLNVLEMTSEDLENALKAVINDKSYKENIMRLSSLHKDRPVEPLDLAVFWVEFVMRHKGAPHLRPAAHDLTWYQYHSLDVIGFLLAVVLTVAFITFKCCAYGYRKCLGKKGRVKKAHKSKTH

UGT2B4 = target: T3, UGT2B4 (Homo sapiens, UniProt P06133); experiment: Screening for aprepitant glucuronidation, UGT2B4 Supersomes; format: in vitro ADME; details: UGT2B4, 5 and 250 µM aprepitant
T3 sequence (P06133 24-528): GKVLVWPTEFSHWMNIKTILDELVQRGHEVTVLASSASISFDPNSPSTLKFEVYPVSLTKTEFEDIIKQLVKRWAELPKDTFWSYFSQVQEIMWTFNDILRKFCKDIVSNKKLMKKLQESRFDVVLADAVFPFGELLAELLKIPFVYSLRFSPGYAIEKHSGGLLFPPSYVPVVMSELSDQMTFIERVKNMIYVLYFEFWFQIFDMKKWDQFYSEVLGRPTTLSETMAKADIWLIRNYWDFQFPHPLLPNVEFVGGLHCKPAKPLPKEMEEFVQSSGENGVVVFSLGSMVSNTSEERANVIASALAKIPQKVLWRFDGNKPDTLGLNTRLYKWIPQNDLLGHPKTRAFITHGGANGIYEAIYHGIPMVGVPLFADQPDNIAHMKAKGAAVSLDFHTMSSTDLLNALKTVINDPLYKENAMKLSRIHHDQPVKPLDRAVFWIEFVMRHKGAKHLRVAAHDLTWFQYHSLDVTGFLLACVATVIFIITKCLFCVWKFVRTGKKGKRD

UGT2B15 = target: T4, UGT2B15 (Homo sapiens, UniProt P54855); experiment: Screening for aprepitant glucuronidation, UGT2B15 Supersomes; format: in vitro ADME; details: UGT2B15, 5 and 250 µM aprepitant
T4 sequence (P54855 24-530): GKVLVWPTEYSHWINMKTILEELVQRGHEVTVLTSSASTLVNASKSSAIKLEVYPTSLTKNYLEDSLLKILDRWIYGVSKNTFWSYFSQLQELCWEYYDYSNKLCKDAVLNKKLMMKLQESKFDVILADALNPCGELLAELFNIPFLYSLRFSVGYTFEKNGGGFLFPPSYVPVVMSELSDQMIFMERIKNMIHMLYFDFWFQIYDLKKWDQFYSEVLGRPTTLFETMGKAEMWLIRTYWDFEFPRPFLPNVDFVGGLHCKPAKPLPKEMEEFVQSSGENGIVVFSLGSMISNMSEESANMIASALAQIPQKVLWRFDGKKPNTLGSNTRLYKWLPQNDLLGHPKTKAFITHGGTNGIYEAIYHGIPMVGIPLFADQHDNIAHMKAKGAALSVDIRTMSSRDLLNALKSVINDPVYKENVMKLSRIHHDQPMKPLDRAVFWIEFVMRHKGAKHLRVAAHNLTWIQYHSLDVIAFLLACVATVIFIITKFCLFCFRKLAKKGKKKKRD

UGT1A7 [3] = target: T2, UGT1A7; experiment: Inhibition by aprepitant of UGT1A7; format: in vitro ADME; details: UGT1A7 enzyme, pH 7.5, probe 4-MU
[4] = ref Merck 2003; cited from earlier work
in vitro = details: human, microsomes, pH 7.5
[5] = system: UGTs in human intestinal microsomes (HIM); experiment: in vitro; details: pH 7.5

C[C@@H](O[C@H]1OCCN(Cc2n[nH]c(=O)[nH]2)[C@H]1c1ccc(F)cc1)c1cc(C(F)(F)F)cc(C(F)(F)F)c1 [aprepitant, Aprepitant]
shape of velocity curve (kinetics) [1]: biphasic shape | AP-G formation (UGT1A1): not detected | AP-G formation (UGT1A7 [2]): not detected | AP-G formation (UGT2B4): not detected | AP-G formation (UGT2B15): not detected | inhibition at 10 µM (UGT1A7 [3]): 17% | mean absolute oral bioavailability [4]: 60–65% | microsomal CLint (in vitro): 5600 µL/min/mg | Km at 60 min [5]: 63 ± 5 µM
